The results in this text go back to patent US10087188B2, “Benzamide imidazopyrazine Btk inhibitors” (MERCK SHARP & DOHME CORP., priority 2014, dated 2018).

Experiment [1] concerns the target BTK enzyme (recombinant full-length BTK, hBTK) (Homo sapiens (Human), UniProt Q06187). The experiment is described as follows: Btk enzyme activity assay, LANCE TR-FRET. The experiment is classed as biochemical. Conditions: 50 pM hBTK, 2 μM biotin-A5-peptide, 25 μM ATP; 60 minute compound & enzyme incubation; read-out: BTK binding IC50. On the procedure: Btk Enzyme Activity Assay Methods
BTK enzymatic activity was determined with the LANCE (Lanthanide Chelate Excite) TR-FRET (Time-resolved fluorescence resonance energy transfer) assay. […] After 60 minutes incubation with detection reagents, reaction plates were read on a PerkinElmer EnVision plate reader using standard TR-FRET protocol.

In a further experiment the test system is HeLa cells. The experiment is described as follows: [3H] Adenosine uptake assay. The experiment is classed as cell-based. As to conditions: accumulation of tritiated adenosine into HeLa cells, compound concentration range 10 μM to 0.032 nM, read-out: ADU inhibition IC50 (adenosine uptake inhibition potency). In a few lines: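 HeLa cells in HBSS + 5% FBS preincubated 30 min at ambient temperature with compound (0.25% DMSO), then [3H]adenosine (500 nM stock) added for 60 min. Uptake measured by scintillation proximity counting; IC50 from 4-parameter fit of counts vs log concentration.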

Where two headings read alike, the source gives them in different places.

Chain of BTK enzyme (recombinant full-length BTK, hBTK) (Q06187 whole entry): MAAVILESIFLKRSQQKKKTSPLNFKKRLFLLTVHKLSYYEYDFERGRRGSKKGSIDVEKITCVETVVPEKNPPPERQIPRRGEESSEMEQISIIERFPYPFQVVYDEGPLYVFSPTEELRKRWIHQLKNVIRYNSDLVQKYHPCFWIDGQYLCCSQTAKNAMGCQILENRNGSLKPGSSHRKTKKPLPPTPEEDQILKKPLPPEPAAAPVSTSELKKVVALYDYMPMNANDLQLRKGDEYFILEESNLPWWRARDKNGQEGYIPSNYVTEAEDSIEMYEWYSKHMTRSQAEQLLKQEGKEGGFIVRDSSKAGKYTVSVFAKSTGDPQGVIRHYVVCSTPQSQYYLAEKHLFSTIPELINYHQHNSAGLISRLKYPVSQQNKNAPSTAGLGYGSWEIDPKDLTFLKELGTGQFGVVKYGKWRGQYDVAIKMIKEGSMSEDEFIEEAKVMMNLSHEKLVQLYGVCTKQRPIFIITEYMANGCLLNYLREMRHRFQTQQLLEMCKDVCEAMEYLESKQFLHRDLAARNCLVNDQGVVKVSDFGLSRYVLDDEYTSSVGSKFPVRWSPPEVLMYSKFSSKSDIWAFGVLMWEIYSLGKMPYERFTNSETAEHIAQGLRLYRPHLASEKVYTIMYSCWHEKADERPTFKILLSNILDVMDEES

`COc1cc(C(=O)Nc2cc(C(F)(F)F)ccn2)cc(F)c1-c1nc(C23CCC(C(=O)O)(CC2)CC3)n2c(F)cnc(N)c12` [Example 122, 4-[8-amino-5-fluoro-1-(2-fluoro-6-methoxy-4-{[4-(trifluoromethyl)pyridin-2-yl]carbamoyl}phenyl)imidazo[1,5-a]pyrazin-3-yl]bicyclo[2.2.2] octane-1-carboxylic acid]: the IC50 came to 0.91 nM in experiment [1] and 10000 nM with HeLa cells (Homo sapiens, HeLa).

Consider `CC(C)(C(=O)O)C1CCC(c2nc(-c3ccc(C(=O)Nc4cc(C(F)(F)F)ccn4)cc3)c3c(N)nccn23)C1` (stereo not drawn) [Example 95, 2-{3-[8-amino-1-(4-{[4-(trifluoromethyl)pyridin-2-yl]carbamoyl}phenyl)imidazo[1,5-a]pyrazin-3-yl]cyclopentyl}-2-methylpropanoic acid], for which the half-inhibitory concentration (IC50) in experiment [1] worked out at 1.7 nM; in the experiment with HeLa cells (Homo sapiens, HeLa) it was 5100 nM.

For the molecule `C[C@@]1(C(=O)O)CCCN(c2nc(-c3ccc(C(=O)Nc4cc(C(F)(F)F)ccn4)cc3)c3c(N)nccn23)C1` [Example 41, (3R)-1-[8-amino-1-(4-{[4-(trifluoromethyl)pyridin-2-yl]carbamoyl}phenyl)imidazo[1,5-a]pyrazin-3-yl]-3-methylpiperidine-3-carboxylic acid], the IC50 in experiment [1] is 7.6 nM; in the experiment with HeLa cells (Homo sapiens, HeLa) it was 4290 nM.

Regarding `C[C@]1(C(=O)O)CC[C@H](N2CCO[C@@H](c3nc(-c4ccc(C(=O)Nc5ccccn5)cc4)c4c(N)ncc(Cl)n34)C2)CC1` [Example 204, trans-4-[(2R)-2-{8-amino-5-chloro-1-[4-(pyridin-2-ylcarbamoyl)phenyl]imidazo [1,5-a]pyrazin-3-yl}morpholin-4-yl]-1-methylcyclohexanecarboxylic acid], the IC50 came out at 3.8 nM in experiment [1] and 3870 nM in the experiment with HeLa cells (Homo sapiens, HeLa).

For `Nc1nccn2c([C@@H]3CCN[C@@H](C(=O)O)C3)nc(-c3ccc(C(=O)Nc4cc(C(F)(F)F)ccn4)cc3)c12` [Example 33, (2R,4R)-4-[8-amino-1-(4-{[4-(trifluoromethyl)pyridin-2-yl]carbamoyl}phenyl)imidazo[1,5-a]pyrazin-3-yl]piperidine-2-carboxylic acid], the concentration for half-maximal inhibition (IC50) was 4.4 nM in experiment [1] and 6800 nM in the experiment with HeLa cells (Homo sapiens, HeLa).

As for `COc1cc(C(=O)Nc2cc(C(F)(F)F)ccn2)cc(F)c1-c1nc(C23CCC(C(=O)O)(CC2)CC3)n2ccnc(N)c12` [Example 108, 4-[8-amino-1-(2-fluoro-6-methoxy-4-{[4-(trifluoromethyl)pyridin-2-yl]carbamoyl}phenyl)imidazo[1,5-a]pyrazin-3-yl]bicyclo[2.2.2] octane-1-carboxylic acid], the concentration for half-maximal inhibition (IC50) in experiment [1] amounted to 0.73 nM; with HeLa cells (Homo sapiens, HeLa), 6690 nM.

With `CC1(C(=O)O)CCCC(c2nc(-c3ccc(C(=O)Nc4cc(C5CC5)ccn4)cc3)c3c(N)nccn23)C1` (stereo not drawn) [Example 153, 3-(8-amino-1-{4-[(4-cyclopropylpyridin-2-yl)carbamoyl]phenyl}imidazo[1,5-a]pyrazin-3-yl)-1-methylcyclohexane-carboxylic acid], the IC50 was found to be 2.6 nM in experiment [1] and 2480 nM in the experiment with HeLa cells (Homo sapiens, HeLa).

In the case of `CCOc1cc(C(=O)Nc2cc(C(F)(F)F)ccn2)ccc1-c1nc([C@H]2CC[C@@H](C(C)C)[C@@H](C(=O)O)C2)n2ccnc(N)c12` [Example 101, (1S,2S,5S)-5-[8-amino-1-(2-ethoxy-4-{[4-(trifluoromethyl)pyridin-2-yl]carbamoyl}phenyl)imidazo[1,5-a]pyrazin-3-yl]-2-(1-methylethyl) cyclohexane-carboxylic acid], the half-inhibitory concentration (IC50) came out at 2 nM in experiment [1] and 10000 nM in the experiment with HeLa cells (Homo sapiens, HeLa).

Regarding `CCOc1cc(C(=O)Nc2cc(C(F)(F)F)ccn2)ccc1-c1nc(C2CC3(CC(C(=O)O)C3)C2)n2ccnc(N)c12` (stereo not drawn) [Example 93, 6-[8-amino-1-(2-ethoxy-4-{[4-(trifluoromethyl)pyridin-2-yl]carbamoyl}phenyl)imidazo[1,5-a]pyrazin-3-yl]spiro[3.3]heptane-2-carboxylic acid], the IC50 in experiment [1] turned out to be 0.51 nM; with HeLa cells (Homo sapiens, HeLa) it was 4640 nM.

Consider `CCOc1cc(C(=O)Nc2cc(C(F)(F)F)ccn2)ccc1-c1nc([C@@H]2CC[C@@H](C(=O)O)O2)n2ccnc(N)c12` [Example 116, (2S,5S)-5-[8-amino-1-(2-ethoxy-4-{[4-(trifluoromethyl)pyridin-2-yl]carbamoyl}phenyl)imidazo[1,5-a]pyrazin-3-yl]tetrahydrofuran-2-carboxylic acid], for which the IC50 in experiment [1] is 22 nM; in the experiment with HeLa cells, 1140 nM.

Take `CC(C)(C(=O)O)C1CCC(c2nc(-c3ccc(C(=O)Nc4cc(C(F)(F)F)ccn4)cc3)c3c(N)nccn23)C1` (stereo not drawn) [Example 96, 2-{3-[8-amino-1-(4-{[4-(trifluoromethyl)pyridin-2-yl]carbamoyl}phenyl)imidazo[1,5-a]pyrazin-3-yl]cyclopentyl}-2-methylpropanoic acid]: the IC50 was 4 nM in experiment [1] and 10000 nM in the experiment with HeLa cells.

As for `C[C@@]1(C(=O)O)CC[C@@](C)(c2nc(-c3ccc(C(=O)Nc4cc(C(F)(F)F)ccn4)cc3F)c3c(N)nccn23)C1` [Example 136, (1R,3R)-3-[8-amino-1-(2-fluoro-4-{[4-(trifluoromethyl)pyridin-2-yl]carbamoyl}phenyl)imidazo[1,5-a]pyrazin-3-yl]-1,3-dimethylcyclopentane carboxylic acid], the IC50 in experiment [1] came to 0.17 nM; in the experiment with HeLa cells (Homo sapiens, HeLa) it was 3420 nM.

As for `CC1(C(=O)O)CCC(N2CCC[C@@H](c3nc(-c4ccc(C(=O)Nc5cc(C(F)(F)F)ccn5)cc4F)c4c(N)nccn34)C2)CC1` (stereo partly drawn) [Example 182, 4-{(3R)-3-[8-amino-1-(2-fluoro-4-{[4-(trifluoromethyl)pyridin-2-yl]carbamoyl}phenyl)imidazo [1,5-a]pyrazin-3-yl]piperidin-1-yl}-1-methylcyclohexanecarboxylic acid], the IC50 in experiment [1] worked out at 1.9 nM; with HeLa cells (Homo sapiens, HeLa) it was 179 nM.

On to `Nc1nccn2c([C@@H]3CCCN(C(=O)C4CC4C(=O)O)C3)nc(-c3ccc(C(=O)Nc4cc(C(F)(F)F)ccn4)cc3)c12` (stereo partly drawn) [Example 150, 2-({(3R)-3-[8-amino-1-(4-{[4-(trifluoromethyl)pyridin-2-yl]carbamoyl}phenyl)imidazo[1,5-a]pyrazin-3-yl]piperidin-1-yl}carbonyl) cyclopropane-carboxylic acid], for which the IC50 was determined as 1.3 nM in experiment [1] and 6650 nM with HeLa cells (Homo sapiens, HeLa).

`Nc1nccn2c([C@@H]3CCC[C@H](C(=O)O)C3)nc(-c3ccc(C(=O)Nc4cc(C(F)(F)F)ccn4)cc3F)c12` [Example 10, (1S,3R)-3-[8-amino-1-(2-fluoro-4-{[4-(trifluoromethyl)pyridin-2-yl]carbamoyl}phenyl)imidazo [1,5-a]pyrazin-3-yl]cyclohexane-carboxylic acid]: the IC50 in experiment [1] turned out to be 0.39 nM; with HeLa cells (Homo sapiens, HeLa), 10000 nM.

For `Nc1nccn2c(C34CC(C(=O)O)(C3)C4)nc(-c3ccc(C(=O)Nc4cc(C(F)(F)F)ccn4)cc3)c12` [Example 34, 3-[8-amino-1-(4-{[4-(trifluoromethyl)pyridin-2-yl]carbamoyl}phenyl)imidazo[1,5-a]pyrazin-3-yl]bicyclo[1.1.1] pentane-1-carboxylic acid], the IC50 came to 0.39 nM in experiment [1] and 6480 nM with HeLa cells (Homo sapiens, HeLa).

For the molecule `Nc1nccn2c([C@H]3CC[C@@H](CC(=O)O)C3)nc(-c3ccc(C(=O)Nc4cc(C(F)(F)F)ccn4)cc3)c12` [Example 50, {(1R,3S)-3-[8-amino-1-(4-{[4-(trifluoromethyl)pyridin-2-yl]carbamoyl}phenyl)imidazo[1,5-a]pyrazin-3-yl]cyclopentyl}acetic acid], the IC50 in experiment [1] is 0.26 nM; with HeLa cells (Homo sapiens, HeLa) it was 3700 nM.

Consider `CC(C)C1(C(=O)O)CCC(C)(c2nc(-c3ccc(C(=O)Nc4cc(C(F)(F)F)ccn4)cc3)c3c(N)nccn23)C1` (stereo not drawn) [Example 144, 3-[8-amino-1-(4-{[4-(trifluoromethyl)pyridin-2-yl]carbamoyl}phenyl)imidazo[1,5-a]pyrazin-3-yl]-3-methyl-1-(1-methylethyl) cyclopentane-carboxylic acid], for which the IC50 in experiment [1] was 2.5 nM; in the experiment on HeLa cells, 3010 nM.

On to `CCOc1cc(C(=O)Nc2cc(C(F)(F)F)n(C)n2)ccc1-c1nc([C@H]2CC[C@@](C(=O)O)(C(C)C)C2)n2ccnc(N)c12` [Example 53, (1S,3S)-3-[8-amino-1-(2-ethoxy-4-{[1-methyl-5-(trifluoromethyl)-1H-pyrazol-3-yl]carbamoyl}phenyl)imidazo[1,5-a]pyrazin-3-yl]-1-(1-methylethyl) cyclopentane-carboxylic acid], for which the IC50 in experiment [1] was 0.87 nM; in the experiment on HeLa cells (Homo sapiens, HeLa), 10000 nM.

In the case of `CC(C)(C(=O)O)N1CCC[C@@H](c2nc(-c3ccc(C(=O)Nc4cc(C(F)(F)F)ccn4)cc3F)c3c(N)nccn23)C1` [Example 186, 2-{(3R)-3-[8-amino-1-(2-fluoro-4-{[4-(trifluoromethyl)pyridin-2-yl]carbamoyl}phenyl)imidazo [1,5-a]pyrazin-3-yl]piperidin-1-yl}-2-methylpropanoic acid], the IC50 in experiment [1] was 9.4 nM; with HeLa cells (Homo sapiens, HeLa), 1240 nM.

`Nc1nccn2c(C34C5C6C3C3C4C5C63C(=O)O)nc(-c3ccc(C(=O)Nc4cc(C5CC5)ccn4)cc3F)c12` (stereo not drawn) [Example 74, 4-(8-amino-1-(4-((4-cyclopropylpyridin-2-yl)carbamoyl)-2-fluorophenyl)imidazo [1,5-a]pyrazin-3-yl)cubane-1-carboxylic acid]: the IC50 in experiment [1] is 0.54 nM; in the experiment on HeLa cells (Homo sapiens, HeLa), 113 nM.
